Consider two compounds from patent publication US20130178479A1, “PHARMACEUTICAL COMBINATIONS” (NOVARTIS AG, priority 2010, published 2013).

Where two headings read alike, the source gives them in different places.

For experiment [1], the system named is KMS-11 human Multiple Myeloma cancer cells. The experiment in a line: Cell proliferation assay (CellTiter-Glo) in KMS-11. The format is cell-based. To be noted: for IC50: Homo sapiens. Here is the method: (§1) Celt Proliferation Assay: Cell viability was determined by measuring cellular ATP content using the CellTiter-Glo® Luminescent Cell Viability Assay (Promega #G7573) according to manufacturer's protocol. Briefly, 1500-50000 cells were plated on either 384 or 96 well plates in 30 μl (384 well) or 100 μl (96 well) growth media, cells were: allowed to attach overnight and followed by 72 hrs of incubation with various concentration of drugs or drug combinations (10 μl per well in 384 well plates), at the end of the drug treatment, 30 μl of the CellTiter-Glo regent were added to each well (384 well plates) to lyse the cell, and luminescence signals were recorded on a Envision plate reader.
(§2) Method for calculating the effect of the Combination: To evaluate the everolimus and Compound A combination effect in a non-bias way and to identify synergistic effect at all possible concentrations, the combination studies were conducted with a “dose matrix”, where a combination is tested in all possible permutations of serially-diluted everolimus and Compound A single agent doses, in all combination assays, compounds were applied simultaneously. Single agent dose responding curves, IC50, IC90, and the Synergy are all analyzed using Chalice software (CombinatoRx, Cambridge, Mass.). Synergy was calculated by comparing a combination's response to those of its single agents, against the drug-with-itself dose-additive reference model. Deviations from dose additivity can be assessed visually on an Isobologram or numerically With a Combination Index. Excess inhibition compare to additivity can also be plotted as a full dose-matrix chart to capture where the synergies occur. To quantify the overall strength of combination effects, a volume score VHSA=ΣXYInfXInfY(Idata−IHSA) is also calculated between the data and the highest-single-agent surface, normalized for single agent dilution factors fX,fY[ref].
The cells were plated, at 50000 cells/well in 96 well plates in triplicates, and treated with compound for 72 hrs prior to the measurement (FIG. 11). The following “dose matrix”, everolimus; 8 dose, 3×, 500 nM to 0.23 nM, Compound A: 8 dose, 2×, 1 μM to 8 nM, was applied.
In general terms: In ATP-based viability assays light output follows the ATP content of the culture.

The test system of experiment [2] is NCI-H23 human non-small cell lung cancer cells. Kind of experiment: Cell proliferation assay (CellTiter-Glo) in NCI-H23. Format: cell-based. Particulars: for IC50: Homo sapiens. Here is the method:
as §1, §2
The experiment setup is identical to the p4EBP1 high content assay as used for the NCI-H23 cell model, (FIG. 5). And the same “doss matrix” (everolimus; 5 dose, 4×, 1.2 μM to 5 nM, Compound A: 9 dose, 2×, 1.2 μM to 5 nM) was applied.
Another experiment was conducted to evaluate the combination effect using cell titer glow (CTG) assay, this time, cells were plated in 384 well plates at 1000 cells/well in triplicates, and treated with compound for 72 hours before the measurement (FIG. 6). in this extended “dose matrix” study, everolimus was subjected to a 11 dose 4× serial dilution with the highest dose at 1 uM and the low dose at about 1 pM, and Compound A was subjected to a 9 dose 4× serial dilution with high dose at 1 μM and low dose at about 16 pM.

Experiment [3] has as its system PI3K/mTOR. Particulars: cited from earlier work.
Experiment [4] deals with MFE296 human endometrial cancer cells. The experiment in a line: Cell proliferation assay (CellTiter-Glo) in MFE296. The format is cell-based. Particulars: for Amax: single agent. Here is the method:
as §1, §2
The experiment setup is identical to the p4EBP1 assay as described above for the MFE296 cancer cell model. (FIG. 8). And the same “dose matrix” (everolimus: 11 dose, 4', 500 nM to 0.5 pM, Compound A; 9 dose, 4×, 1 μM to 16 nM) was applied.

Experiment [5] relates to p4EBP1 T37/46 in MFE296 cells. The experiment in a line: High content p4EBP1 T37/46 assay in MFE296 cells. Format: cell-based, human. Particulars: for IC50 / IC90: Homo sapiens, MFE-296. As to the method: Automated imaging assay (or High-Content assay) for pS6 S240/244 and p4EBP1 T37/46: 2-4×10^3 cells were seeded in clear-bottom 384-well black plates (Greiner #781091) in 30 μl per well growth media 24 hours prior to treatment Compounds were added to the cell in 10 μl growth media and incubated overnight; the cells were then fixed by addition of 10 μl per well Mirsky's fixative (National Diagnostics #HS-102) for 1 hour, washed seven times with 30 μl/well TBS buffer using a BioTek plate washer, and blocked with 100 μl/well blocking buffer (TBS with 0.1% BSA and 0.1% Triton X-100). The anti-Ser 240/244 -RPS6 antibody (CST #4838, 1:150 dilution) or anti-Thr 37/46-p4EBP1 antibody (CST #2855, 1:150 dilution) were then incubated overnight at 4° C. After seven times wash with TBS, the cells were stained with Cy5-conjugated goat-anti-rabbit IgG 2nd antibody (Millipore #AP187S, 1:150 dilution) and DNA staining dye Neediest 33342 for 1.5 hours. The phospho-S6 and phospho-4EBP1 signals were-imaged using InCell 1000 Analyzer (BN_staining—10×protocol) at 10× magnification, 3 fields per well after seven times wash with TBS. For Hoechst 33342 signal; the excitation and emission wave lengths are 360 nm (D360—40× filter) and […] (HQ460—40M filter), respectively, and for Cy5, 620 nm (HQ620—60× filter) for both the excitation and emission wave lengths. Analysis of the images was done using the InCell Investigator software.
as §2
p4EBP1 signal. […] The cells were plated at 4000 cells/well in 384 well plates in duplicates, and treated with compound for 18 hrs before the measurement (FIG. 7).

The test system of experiment [6] is AN3 CA human endometrial cancer cells. The experiment in a line: Cell proliferation assay (CellTiter-Glo) in AN3 CA. The format is cell-based. Here is the method:
as §1, §2
The cells were plated at 1500 cells/well in 384 well plates in quadruplicates, and treated with compound for 72 hrs before the measurement (FIG. 9). The following “dose matrix”, everolimus: 11 dose, 4×, 500 nM to 0.5 pM, Compound A: 9 dose, 4×, 1 μM to […], was applied.

Experiment [7] has as its system six cell lines from various tissue lineages. Kind of experiment: Antiproliferative effect of combinations, summary over six cell lines. Format: cell-based, human. To be noted: depends on the cell types. Here is the method:
as §1
Method for calculating the effect of the Combination: To evaluate the everolimus and Compound A combination effect in a non-bias way and to identify synergistic effect at all possible concentrations, the combination studies were conducted with a “dose matrix”, where a combination is tested in all possible permutations of serially-diluted everolimus and Compound A single agent doses, in all combination assays, compounds were applied simultaneously. Single agent dose responding curves, IC50, IC90, and the Synergy are all analyzed using Chalice software (CombinatoRx, Cambridge, Mass.). […] Deviations from dose additivity can be assessed visually on an Isobologram or numerically With a Combination Index. […]

The mark [8] stands for this setting: NCI-H23, 72 h, single agent, extended dose matrix, 72 hours (FIG. 6), read-out: IC50, inhibition of cell growth.
Where [9] appears, read: single agent, dose matrix 1.2 μM to 5 nM (FIG. 5).
Setting [10] is: single agent, extended dose matrix, 72 hours (FIG. 6).
Where [11] appears, read: with trace amount (picomolar) of everolimus.

For `Cn1c(=O)n(-c2ccc(C(C)(C)C#N)cc2)c2c3cc(-c4cnc5ccccc5c4)ccc3ncc21` [Compound A, 2-methyl-2-[4-(3-methyl-2-oxo-8-quinolin-3-yl-2,3-dihydro-imidazo[4,5-c]quinolin-1-yl)-phenyl]-propionitrile], the “full effective dose amount of Compound A” value was above 125 nM in experiment [1] (Compound A alone, KMS-11); 16 to 82 nM in experiment [1] (with trace amount (sub-nanomolar) of everolimus, KMS-11); above 64 nM in experiment [6] (Compound A alone); “close to nanomolar or sub-nanomolar range” in experiment [6] (setting [11]). Further, the IC50 is 16 nM in experiment [1] (concomitant everolimus, KMS-11, read-out: IC50 for Compound A, cell growth); around 80 nM in experiment [1] (single agent, KMS-11, 72 hrs, read-out: IC50, inhibition of cell growth); 80 nM in experiment [2] (setting [8]); 10 nM in experiment [2] (NCI-H23, in combination with 5 nM everolimus, read-out: IC50 for Compound A, cell growth); 78 nM in experiment [2] (NCI-H23, single agent, dose matrix 1.2 μM to 5 nM (FIG. 5), read-out: IC50, inhibition of cell growth); 78 nM in experiment [4] (Homo sapiens, MFE-296, single agent, read-out: IC50, inhibition of cell growth). For the same compound, the IC50 in experiment [5] (in presence of trace amount of everolimus, MFE296, read-out: IC50 for Compound A, p4EBP1 signal) worked out at 0.24 nM; in experiment [5] (single agent, MFE296, 18 hrs, read-out: IC50, reduction of p4EBP1 signal) it was 16 nM; in experiment [6] (Homo sapiens, single agent, 72 hrs, read-out: IC50, inhibition of cell growth) it was 5 nM. The Amax came to 0.7 in experiment [1] (single agent, KMS-11, 72 hrs); 0.7 in experiment [2] (setting [10]); 0.79 in experiment [4]; 0.69 in experiment [6] (single agent, 72 hrs). Besides, the “Amax, the maximum fraction of inhibition” value in experiment [2] (setting [9]) was 0.7. Besides, the “growth inhibition compare to DMSO control (at Amax)” value in experiment [2] (setting [9]) turned out to be 70%. In addition, in experiment [2] (with 5 nM everolimus vs Compound A alone), the “reduction on IC50 of Compound A, cell growth” value came out at 8 fold. Moreover, in experiment [3] (low concentration), the “concentration at which mTOR inhibition predominates” value is on record as “less than 100 nmol/L”. Further, the “concentration at which dual PI3K/mTOR inhibition is observed” value in experiment [3] (relatively higher concentrations) is on record as “approximately 500 nmol/L”. Also, the “full effective dose of Compound A” value in experiment [4] (Compound A alone) is recorded as 250 nM; in experiment [4] (setting [11]), “close to sub-nanomolar range”. In addition, the IC90 was 4 nM in experiment [5] (in presence of trace amount of everolimus, MFE296, read-out: IC90 for Compound A, p4EBP1 signal) and around 100 nM in experiment [5] (single agent, MFE296, 18 hrs, read-out: IC90, reduction of p4EBP1 signal). The “enhancement of the potency of Compound A by everolimus” value in experiment [7] is on record as 5-100 fold.

`CO[C@H]1C[C@@H]2CC[C@@H](C)[C@@](O)(O2)C(=O)C(=O)N2CCCC[C@H]2C(=O)O[C@H]([C@H](C)C[C@@H]2CC[C@@H](OCCO)[C@H](OC)C2)CC(=O)[C@H](C)/C=C(\C)[C@@H](O)[C@@H](OC)C(=O)[C@H](C)C[C@H](C)/C=C/C=C/C=C/1C` [everolimus, 40-O-(2-hydroxyethyl)-rapamycin, reference compound]: the Amax in experiment [1] (single agent, KMS-11, 72 hrs) was found to be 0.28; in experiment [2] (setting [10]), 0.3; in experiment [4] it was 0.6; in experiment [6] (single agent, 72 hrs) it was 0.3. The IC50 in experiment [2] (setting [8]) is above 1000 nM. In addition, the “Amax, the maximum fraction of inhibition” value in experiment [2] (setting [9]) is 0.3. Further, the “IC50, inhibition of cell growth” value in experiment [2] (setting [9]) is recorded as “never achieved an IC50”. Besides, the p4EBP1 signal reduction entry in experiment [5] (single agent, all concentrations tested 0.5 pM-500 nM, MFE296) is “approximately 20%”.

The term IC50 denotes the concentration at which inhibition is half-maximal. A word on the IC90: it is the point of the concentration-response curve where the effect stands at 90%.
